22 molecules from patent publication US9078902B2, “Triazine derivatives and their therapeutical applications” (NantBioScience, Inc., priority 2010, dated 2015) can be followed below.

What is called inhibition is the drop in the measured response relative to a control, in per cent.

A value given as a limit tells only on which side of the number the result lay.

Format in all cases: biochemical
One assay has as its target T1, Ret kinase (Homo sapiens, UniProt P07949).
T1 construct: purchased Millipore (KinaseProfiler Service); also Reaction Biology Corp. (Kinase HotSpot)
In words: Ret kinase assay (KinaseProfiler / Kinase Hotspot). On the procedure: (§1) This example illustrated c-Src kinase, Aurora-A kinase, Flt3 kinase, Ret kinase and TrkA Kinase Assays of selected Compounds from this invention (referred to Daniele Fancelli et al, J. Med. Chem., 2006, 49 (24), pp 7247-7251). The KinaseProfiler™ Service Assay Protocols (Millipore) were used to test the kinase inhibiting activity of novel compounds from this invention. To do this, the buffer composition was as: 20 mM MOPS, 1 mM EDTA, 0.01% Brij-35, 5% Glycerol, 0.1% p-mercaptoethanol, 1 mg/mL BSA. Test compounds were initially dissolved in DMSO at the desired concentration, then serially diluted to the kinase assay buffer. In a final reaction volume of […], Aurora-A(h) (5-10 mU) is incubated with 8 mM MOPS pH 7.0, 0.2 mM EDTA, […] LRRASLG (Kemptide), 10 mM MgAcetate and [y33P-ATP]. The reaction was initiated by the addition of the MgATP mix. After incubation for 40 minute at room temperature, the reaction was stopped by addition of […] of a 3% phosphoric acid solution. […] of the reaction was then spotted onto a P30 filtermat and washed three times for 5 minutes in 50 mM phosphoric acid and once in methanol prior to drying and scintillation counting. Wells containing substrate but no kinase and wells containing a phosphopeptide control were used to set 0% and 100% phosphorylation value, repectively.
(§2) Also Kinase Hotspot SM kinase assay was used to test the compounds for IC50 or % inhibitions (Reaction Biology Corp.). Inhibitor IC50 values were determined by titration of compound at the optimal kinase concentration (Kinase EC50).

The next assay deals with T2, Aurora-A kinase (Homo sapiens, UniProt O14965).
T2 construct: purchased Millipore (KinaseProfiler Service); also Reaction Biology Corp. (Kinase HotSpot)
T2 sequence (O14965 1-403): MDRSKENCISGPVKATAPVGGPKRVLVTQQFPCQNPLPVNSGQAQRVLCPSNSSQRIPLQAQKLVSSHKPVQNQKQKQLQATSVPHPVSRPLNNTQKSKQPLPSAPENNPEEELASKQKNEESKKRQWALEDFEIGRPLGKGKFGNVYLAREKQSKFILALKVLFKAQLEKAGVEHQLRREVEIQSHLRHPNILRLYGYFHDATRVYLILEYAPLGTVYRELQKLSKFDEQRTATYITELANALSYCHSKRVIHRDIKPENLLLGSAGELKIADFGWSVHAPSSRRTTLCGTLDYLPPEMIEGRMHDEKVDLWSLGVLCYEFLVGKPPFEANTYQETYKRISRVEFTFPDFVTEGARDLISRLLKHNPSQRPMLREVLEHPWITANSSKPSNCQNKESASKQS
In words: Aurora-A kinase assay (KinaseProfiler / Kinase Hotspot). The following applies: read-out: % Inhibition Auroro-A. On the procedure:
as §1, §2

A further assay deals with T3, TrkA Kinase (Homo sapiens, UniProt P04629).
T3 construct: purchased Millipore (KinaseProfiler Service); also Reaction Biology Corp. (Kinase HotSpot)
T3 sequence (P04629 33-796): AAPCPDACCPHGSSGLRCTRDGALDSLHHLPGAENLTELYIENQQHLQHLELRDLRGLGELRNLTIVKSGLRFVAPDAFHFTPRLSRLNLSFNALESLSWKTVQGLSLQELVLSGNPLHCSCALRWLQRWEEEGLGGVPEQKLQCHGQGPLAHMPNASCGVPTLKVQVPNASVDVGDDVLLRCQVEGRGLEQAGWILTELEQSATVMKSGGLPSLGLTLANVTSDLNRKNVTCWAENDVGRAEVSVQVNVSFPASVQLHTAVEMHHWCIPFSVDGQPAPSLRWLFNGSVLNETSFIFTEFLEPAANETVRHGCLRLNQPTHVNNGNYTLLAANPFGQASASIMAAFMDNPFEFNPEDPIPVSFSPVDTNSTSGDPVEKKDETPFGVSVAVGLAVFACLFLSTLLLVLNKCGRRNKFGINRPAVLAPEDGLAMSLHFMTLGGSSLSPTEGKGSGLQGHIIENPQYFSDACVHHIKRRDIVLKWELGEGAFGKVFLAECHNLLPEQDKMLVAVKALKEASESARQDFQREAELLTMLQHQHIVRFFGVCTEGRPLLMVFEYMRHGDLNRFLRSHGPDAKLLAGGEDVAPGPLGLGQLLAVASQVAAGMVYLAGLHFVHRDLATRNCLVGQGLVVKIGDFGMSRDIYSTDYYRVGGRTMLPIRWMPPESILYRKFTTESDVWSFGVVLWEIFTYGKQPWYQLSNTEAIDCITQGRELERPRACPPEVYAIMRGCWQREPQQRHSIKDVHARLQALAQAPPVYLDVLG
In words: TrkA kinase assay (KinaseProfiler / Kinase Hotspot). On the procedure: as §1, §2

A further assay has as its target T4, c-Src kinase (Homo sapiens, UniProt P12931).
T4 construct: purchased Millipore (KinaseProfiler Service); also Reaction Biology Corp. (Kinase HotSpot)
In words: c-Src kinase assay (KinaseProfiler / Kinase Hotspot). The following applies: read-out: % Inhibition cSrc. On the procedure: as §1, §2

The next assay concerns the target T5, Flt3 kinase (Homo sapiens, UniProt P36888).
T5 construct: purchased Millipore (KinaseProfiler Service); also Reaction Biology Corp. (Kinase HotSpot)
T5 sequence (P36888 27-993): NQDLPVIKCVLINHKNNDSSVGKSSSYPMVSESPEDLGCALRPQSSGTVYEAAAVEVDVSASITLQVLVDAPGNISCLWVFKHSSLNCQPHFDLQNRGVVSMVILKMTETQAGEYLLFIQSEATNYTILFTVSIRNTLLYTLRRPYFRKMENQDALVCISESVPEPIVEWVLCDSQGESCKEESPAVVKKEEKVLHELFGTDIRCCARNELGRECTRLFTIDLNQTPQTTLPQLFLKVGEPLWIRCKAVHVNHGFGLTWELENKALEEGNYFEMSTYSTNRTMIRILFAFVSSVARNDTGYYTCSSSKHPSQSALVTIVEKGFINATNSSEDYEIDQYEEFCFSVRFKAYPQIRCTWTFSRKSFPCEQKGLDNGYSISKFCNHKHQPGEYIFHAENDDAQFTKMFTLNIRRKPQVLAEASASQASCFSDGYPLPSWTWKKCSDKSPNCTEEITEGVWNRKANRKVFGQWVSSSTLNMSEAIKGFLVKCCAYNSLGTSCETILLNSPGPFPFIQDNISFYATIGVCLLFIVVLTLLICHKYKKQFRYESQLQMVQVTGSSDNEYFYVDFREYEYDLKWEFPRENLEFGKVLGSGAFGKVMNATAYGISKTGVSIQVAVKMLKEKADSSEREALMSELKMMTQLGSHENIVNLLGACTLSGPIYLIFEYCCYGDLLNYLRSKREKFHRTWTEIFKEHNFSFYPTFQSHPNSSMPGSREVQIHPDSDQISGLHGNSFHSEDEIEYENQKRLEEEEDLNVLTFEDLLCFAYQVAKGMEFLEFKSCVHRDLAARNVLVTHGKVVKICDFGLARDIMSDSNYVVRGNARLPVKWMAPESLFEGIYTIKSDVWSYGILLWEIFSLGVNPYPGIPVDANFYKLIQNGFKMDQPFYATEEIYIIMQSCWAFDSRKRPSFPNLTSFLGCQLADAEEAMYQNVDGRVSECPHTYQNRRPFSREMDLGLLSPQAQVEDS
In words: Flt3 kinase assay (KinaseProfiler / Kinase Hotspot). On the procedure:
as §1, §2

T1 sequence (P07949 29-1114): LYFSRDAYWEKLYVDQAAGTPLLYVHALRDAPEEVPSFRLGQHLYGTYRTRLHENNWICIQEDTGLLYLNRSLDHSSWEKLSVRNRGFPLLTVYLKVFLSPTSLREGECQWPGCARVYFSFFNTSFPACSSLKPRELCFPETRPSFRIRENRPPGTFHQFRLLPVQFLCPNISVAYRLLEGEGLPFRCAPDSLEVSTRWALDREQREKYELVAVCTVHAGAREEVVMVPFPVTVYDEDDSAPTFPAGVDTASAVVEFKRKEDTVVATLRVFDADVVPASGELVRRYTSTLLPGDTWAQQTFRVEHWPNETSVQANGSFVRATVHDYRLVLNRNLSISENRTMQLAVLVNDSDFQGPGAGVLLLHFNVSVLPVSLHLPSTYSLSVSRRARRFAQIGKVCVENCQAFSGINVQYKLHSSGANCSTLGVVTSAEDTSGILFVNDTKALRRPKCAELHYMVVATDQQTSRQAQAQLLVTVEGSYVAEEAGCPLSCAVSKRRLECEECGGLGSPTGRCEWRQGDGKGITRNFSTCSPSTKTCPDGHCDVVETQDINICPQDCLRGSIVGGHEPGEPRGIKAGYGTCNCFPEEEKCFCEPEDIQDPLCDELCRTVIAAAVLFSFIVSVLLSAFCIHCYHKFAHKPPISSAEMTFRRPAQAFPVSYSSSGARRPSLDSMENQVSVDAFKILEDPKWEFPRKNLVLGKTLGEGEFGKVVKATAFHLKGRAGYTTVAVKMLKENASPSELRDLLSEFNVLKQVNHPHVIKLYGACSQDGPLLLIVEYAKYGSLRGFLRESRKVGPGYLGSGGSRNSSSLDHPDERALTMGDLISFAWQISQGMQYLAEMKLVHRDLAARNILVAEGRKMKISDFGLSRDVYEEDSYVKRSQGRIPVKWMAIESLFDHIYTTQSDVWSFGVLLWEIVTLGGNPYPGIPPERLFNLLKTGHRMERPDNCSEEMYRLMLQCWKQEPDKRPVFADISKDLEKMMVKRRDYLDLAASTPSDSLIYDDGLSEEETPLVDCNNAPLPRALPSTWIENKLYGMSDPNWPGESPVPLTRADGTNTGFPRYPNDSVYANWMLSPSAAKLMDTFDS
T4 sequence (P12931 whole entry): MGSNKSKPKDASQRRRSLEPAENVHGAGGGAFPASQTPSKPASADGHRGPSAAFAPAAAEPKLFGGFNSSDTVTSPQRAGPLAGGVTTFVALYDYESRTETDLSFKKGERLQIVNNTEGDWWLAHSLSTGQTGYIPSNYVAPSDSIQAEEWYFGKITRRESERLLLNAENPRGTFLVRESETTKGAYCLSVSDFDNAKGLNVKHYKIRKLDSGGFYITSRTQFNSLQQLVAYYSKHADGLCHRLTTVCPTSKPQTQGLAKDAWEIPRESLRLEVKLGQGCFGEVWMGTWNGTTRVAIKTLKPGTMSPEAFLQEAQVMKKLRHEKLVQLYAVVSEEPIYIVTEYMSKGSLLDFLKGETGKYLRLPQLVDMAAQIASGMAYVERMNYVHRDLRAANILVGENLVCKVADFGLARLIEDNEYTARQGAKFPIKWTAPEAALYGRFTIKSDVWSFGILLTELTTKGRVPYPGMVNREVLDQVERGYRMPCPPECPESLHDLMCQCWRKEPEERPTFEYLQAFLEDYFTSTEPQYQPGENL

Take `CN1CCN(c2nc(Nc3cc(-c4ccco4)[nH]n3)nc(Sc3ccccc3Cl)n2)CC1` [Example 18]: the inhibition at 1 µM against Ret kinase is 50 to 90%; on Aurora-A kinase, 50 to 90%; against TrkA Kinase it was over 90%; on c-Src kinase, under 50%.
As for `CN1CCN(c2nc(Nc3cc(-c4ccco4)[nH]n3)nc(Sc3ccc(C(F)(F)F)cc3)n2)CC1` [Example 19], the inhibition at 1 µM is 50 to 90% against Ret kinase, 50 to 90% at Aurora-A kinase, over 90% against TrkA Kinase and under 50% at c-Src kinase.
As for `CN1CCN(c2nc(Nc3ncc(-c4cccs4)s3)nc(Sc3cccc(NC(=O)C4CC4)c3)n2)CC1` [Example 31], the inhibition at 1 µM at Ret kinase, on Aurora-A kinase, against TrkA Kinase and on c-Src kinase was under 50% in each case.
Take `CN1CCN(c2nc(Nc3cc(-c4cccs4)[nH]n3)nc(Sc3ccc(NC(=O)C4CC4)cc3)n2)CC1` [Example 6]: the inhibition at 1 µM is over 90% against Ret kinase, 50 to 90% at Aurora-A kinase, over 90% against TrkA Kinase and under 50% at c-Src kinase.
Consider `CN1CCN(c2nc(Nc3ccccc3)nc(Nc3cc(-c4ccco4)[nH]n3)n2)CC1` [Example 20], for which the inhibition at 1 µM at Ret kinase was over 90%; on Aurora-A kinase, 50 to 90%; at c-Src kinase, 50 to 90%.
For `CN1CCN(c2nc(Nc3cc(-c4ccco4)[nH]n3)nc(Sc3cc(Cl)cc(Cl)c3)n2)CC1` [Example 22], the inhibition at 1 µM was 50 to 90% against Ret kinase, 50 to 90% on Aurora-A kinase, over 90% on TrkA Kinase and under 50% at c-Src kinase.
As for `CN1CCN(c2nc(Nc3ncc(-c4cccs4)s3)nc(Sc3ccccc3)n2)CC1` [Example 21], the inhibition at 1 µM on Ret kinase, at Aurora-A kinase, on TrkA Kinase, at c-Src kinase and against Flt3 kinase was under 50% in each case.
Take `CN1CCN(c2nc(Nc3cc(-c4ccco4)[nH]n3)nc(N(C)c3ccccc3)n2)CC1` [Example 27]: the inhibition at 1 µM at Ret kinase was over 90%; at Aurora-A kinase, 50 to 90%; against TrkA Kinase, over 90%; on c-Src kinase, 50 to 90%.
Regarding `CN1CCN(c2nc(Nc3cc(-c4ccco4)[nH]n3)nc(Sc3ccc(NC(=O)C4CC4)cc3)n2)CC1` [Example 5], the inhibition at 1 µM at Ret kinase was 50 to 90%; on Aurora-A kinase, 50 to 90%; against TrkA Kinase, over 90%; at c-Src kinase it was under 50%; against Flt3 kinase, over 90%.
In the case of `CN1CCN(c2nc(Nc3cc(-c4ccco4)[nH]n3)nc(Sc3ccc(Cl)cc3)n2)CC1` [Example 16], the inhibition at 1 µM against Ret kinase is 50 to 90%; at Aurora-A kinase, 50 to 90%; on TrkA Kinase, over 90%; on c-Src kinase, under 50%; against Flt3 kinase it was over 90%.
Regarding `COc1ccc(Sc2nc(Nc3cc(-c4ccco4)[nH]n3)nc(N3CCN(C)CC3)n2)cc1` [Example 24], the inhibition at 1 µM is over 90% against Ret kinase, 50 to 90% at Aurora-A kinase, over 90% against TrkA Kinase and 50 to 90% on c-Src kinase.
As for `CN1CCN(c2nc(Nc3cc(-c4ccco4)[nH]n3)nc(Sc3cccc(Cl)c3)n2)CC1` [Example 17], the inhibition at 1 µM against Ret kinase was 50 to 90%; on Aurora-A kinase, 50 to 90%; against TrkA Kinase, over 90%; at c-Src kinase it was under 50%.
Take `CN1CCN(c2nc(Nc3ncc(-c4ccccc4)s3)nc(Sc3ccccc3)n2)CC1` [Example 14]: the inhibition at 1 µM against Ret kinase is under 50%; at Aurora-A kinase it was under 50%; at TrkA Kinase, over 90%; at c-Src kinase it was under 50%.
Take `CN1CCN(c2nc(Nc3cc(-c4ccco4)[nH]n3)nc(Oc3ccccc3)n2)CC1` [Example 26]: the inhibition at 1 µM at Ret kinase was over 90%; at Aurora-A kinase it was 50 to 90%; against TrkA Kinase, over 90%; on c-Src kinase, 50 to 90%.
For the molecule `CN1CCN(c2nc(Nc3cc(-c4ccco4)[nH]n3)nc(Sc3ccccc3)n2)CC1` [Example 9], the inhibition at 1 µM is over 90% at Ret kinase, 50 to 90% at Aurora-A kinase, over 90% at TrkA Kinase and under 50% at c-Src kinase.
Consider `CCc1nc(Nc2cc(-c3ccco3)[nH]n2)nc(Sc2ccc(NC(=O)C3CC3)cc2)n1` [Example 8], for which the inhibition at 1 µM was 50 to 90% against Ret kinase, under 50% on Aurora-A kinase, 50 to 90% on TrkA Kinase and under 50% on c-Src kinase.
On to `CN1CCN(c2nc(Nc3cc(-c4ccco4)[nH]n3)nc(Sc3ccc(O)cc3)n2)CC1` [Example 15], for which the inhibition at 1 µM is over 90% at Ret kinase, 50 to 90% at Aurora-A kinase, over 90% on TrkA Kinase and 50 to 90% at c-Src kinase.
Regarding `CN1CCN(c2nc(Nc3cc(-c4ccco4)[nH]n3)nc(Sc3ccc(Cl)c(Cl)c3)n2)CC1` [Example 23], the inhibition at 1 µM against Ret kinase was 50 to 90%; at Aurora-A kinase it was 50 to 90%; on c-Src kinase, under 50%.
As for `CN1CCN(c2nc(Nc3cc(-c4ccccc4)[nH]n3)nc(Sc3ccc(NC(=O)C4CC4)cc3)n2)CC1` [Example 28], the inhibition at 1 µM is over 90% at Ret kinase, under 50% at Aurora-A kinase, over 90% on TrkA Kinase and under 50% on c-Src kinase.
Consider `CN1CCN(c2nc(Nc3cc(-c4ccco4)[nH]n3)nc(Sc3cccc(NC(=O)C4CC4)c3)n2)CC1` [Example 30], for which the inhibition at 1 µM against Ret kinase was over 90%; at Aurora-A kinase, under 50%; on TrkA Kinase, over 90%; at c-Src kinase, 50 to 90%.
On to `CN1CCN(c2nc(Nc3cc(-c4ccco4)[nH]n3)nc(Sc3ccc(OC(F)(F)F)cc3)n2)CC1` [Example 25], for which the inhibition at 1 µM is under 50% on Ret kinase, under 50% at Aurora-A kinase, over 90% against TrkA Kinase and under 50% on c-Src kinase.
Regarding `CN1CCN(c2nc(Nc3cc(-c4ccco4)[nH]n3)nc(Sc3ccc(N)cc3)n2)CC1` [Example 10], the inhibition at 1 µM at Ret kinase is over 90%; at Aurora-A kinase, 50 to 90%; at TrkA Kinase, over 90%; at c-Src kinase, under 50%.
